Records with an inconclusive call do not appear. Active and inactive are the calls of the source. The rule behind the calls is not given here.
test system: Mycobacterium tuberculosis non-replicating, growth inhibition; test: growth inhibition of non-replicating M. tuberculosis (AID 488890)

| Structure (SMILES) | IC50 |
| --- | --- |
| O=C(Nc1ccc(S(=O)(=O)N2CCOCC2)cc1)c1ccc([N+](=O)[O-])o1 | 5.29 µM |
| O=C(CCc1ccccc1)N/N=C/c1cc(Br)ccc1O | 0.44 µM |
| NC1=NC[C@H](Cc2ccccc2)N1CCCCC1CCCCC1 | 7.48 µM |
| CCCn1c(O)c(N=NC(=O)c2ccco2)c2ccccc21 | 14.2 µM (inactive) |
| CCOc1c(OC(C)=O)ccc(/C=C2\N=C(SCC)SC2=O)c1[N+](=O)[O-] | 10.2 µM (inactive) |
| Nc1ccc2c(c1)C(=O)C(=O)c1ccccc1-2 | 2.47 µM |
| Cc1ccc(Nc2ccccc2N)cc1 | 2.52 µM |
| COC(=O)c1ccc(C(=O)NC2CC(C)(C)Cc3c2cnn3-c2ccc(F)cc2)nc1 (stereo not given) | 15.7 µM (inactive) |
| COC(=O)c1sc(NC(=O)c2ccc([N+](=O)[O-])o2)c(C#N)c1C | 4.3 µM |
| CCOc1ccc(NC(=O)COc2ccc3c(c2)OCO3)cc1 | 10.6 µM (inactive) |
| COc1ccc(CCNc2nc(-c3ccccn3)cs2)cc1OC | 8.4 µM |
| Cc1c(CN2CCC(CO)(CCOc3ccccc3)CC2)[nH]c2c(Cl)cccc12 | 8.93 µM |
| O=C(Nc1ncc([N+](=O)[O-])s1)c1cccs1 | 11.2 µM (inactive) |
| O=C(Nc1nnc(-c2cc(Cl)ccc2Cl)o1)C1=COCCO1 | 22 µM (inactive) |
| O=c1c2c([N+](=O)[O-])cc([N+](=O)[O-])cc2sn1-c1ccc(Br)cc1 | 18.5 µM (inactive) |
| O=C(N/N=C(\c1ccccc1)c1ccccn1)c1cccc([N+](=O)[O-])c1 | 1.93 µM |
| Oc1ccccc1/C=N/Nc1ncc(Br)cn1 | 1.12 µM |
| CCOc1ccc(Cn2c(=O)oc3ccccc32)cc1 | 0.83 µM |
| Cc1ccc(NC(=O)ON=C2CCCC2)cc1 | 1.97 µM |
| Cc1onc(-c2ccccc2Cl)c1C(=O)O/N=C(\N)c1ccc([N+](=O)[O-])o1 | 4.55 µM |
| CCOc1ccc(C(=O)Nc2nnc(C3=COCCO3)o2)cc1 | 22.2 µM (inactive) |
| Cc1ccc(OCCCCc2c(C)n[nH]c2C)cc1 | 8.01 µM |
| CCc1nnc(N/N=C/c2c(F)cccc2Cl)n1N | 15.3 µM (inactive) |

| Structure (SMILES) | IC50 |
| --- | --- |
| Cc1ccc(NC(=O)c2ccc([N+](=O)[O-])o2)cc1C | 0.28 µM |
| O=C(N/N=C/c1ccc([N+](=O)[O-])o1)c1ccc(NS(=O)(=O)c2cccs2)cc1 | 9.88 µM |
| CCOC(=O)/C=C1\Nc2ccccc2OC1=O | 3 µM |
| COC(=O)C1=C(N)OC2=C(C(=O)CC(C)(C)C2)C1c1cccnc1 (stereo not given) | 14.5 µM (inactive) |
| COc1ccc(NC(=O)C2COc3ccccc3O2)cc1 (stereo not given) | 4.43 µM |
| Cc1cc(C(=O)NNc2ccc(Cl)cc2)no1 | 1.61 µM |
| COc1ccccc1-c1nnc(Sc2nc([N+](=O)[O-])nn2C)o1 | 8.19 µM |
| COc1ccc(C(=O)Oc2c(CN3CCOCC3)cc(Cl)c3cccnc23)cc1OC | 15.3 µM (inactive) |
| Cc1[nH]n2c(=O)c3c(nc2c1-c1ccccc1)CCCC3 | 13.6 µM (inactive) |
| N[C@@H](Cc1ccccc1)c1nnc(SC/C=C/c2ccccc2)o1 | 3.49 µM |
| CCC/C(=N\NC(=O)c1ccco1)c1ccc(Cl)s1 | 9.41 µM |
| O=C(Nc1ccc(N2CCN(C(=O)c3ccco3)CC2)c(Cl)c1)c1cccs1 | 9.56 µM |
| Cc1noc2ncnc(Sc3ccc(Cl)cc3)c12 | 10.9 µM (inactive) |
| Cn1nnnc1Sc1ncnc2scc(-c3ccc[nH]3)c12 | 8.43 µM |
| On1onc2c3cc(-c4ccccc4)nc3ccc21 | 0.31 µM |
| CC(=O)Nc1ccc(NC(=O)c2cc([N+](=O)[O-])cc([N+](=O)[O-])c2)cc1 | 8.92 µM |
| CCOc1ccc(OCC(=O)Nc2ccc(OC)cc2)cc1 | 10.2 µM (inactive) |
| COc1ccc(-c2cc(C(F)(F)F)nc(S(C)(=O)=O)n2)cc1 | 2.87 µM |
| O=C(N/N=C/c1cc(Br)cc(Br)c1O)c1cccc(N2CCCC2=O)c1 | 4.24 µM |
| CCCC(=O)N1CCC(Cc2ccccc2)CC1 | 3.47 µM |
| CCCN1C(=O)S/C(=C\c2ccc(N3CCOCC3)o2)C1=O | 25.2 µM (inactive) |
| Cc1ccc(CSCCNC(=O)c2cccc([N+](=O)[O-])c2)cc1 | 18.4 µM (inactive) |
| COC(=O)c1cccc(COC(=O)c2cc3ccccc3oc2=O)c1 | 11.7 µM (inactive) |

| Structure (SMILES) | IC50 |
| --- | --- |
| CCn1c(-c2ccco2)nc2ccccc21 | 8.99 µM |
| Cc1cc(Cl)ccc1NNC(=O)c1cccs1 | 14.5 µM (inactive) |
| CC1(C)Oc2ccc(NC(=O)C3COc4ccccc4O3)cc2O1 (stereo not given) | 12.9 µM (inactive) |
| O=C(OCn1nnc2ccccc2c1=O)C1CCCCC1 | 22 µM (inactive) |
| CCCOc1ccc(C(=O)C(CN2CCCC2)c2ccccc2)cc1 (stereo not given) | 3.82 µM |
| CN1C/C(=C/c2cccnc2)C(=O)/C(=C/c2cccnc2)C1 | 23.5 µM (inactive) |
| C/C(=N\NC(=O)c1ccccc1O)C1C(=O)c2ccccc2C1=O | 0.64 µM |
| COc1ccc(C(=O)OCn2nnc3ccccc3c2=O)cc1[N+](=O)[O-] | 15.8 µM (inactive) |
| CCC(C)[C@H]1CN=C(N)N1CCc1cccc2ccccc12 (stereo not given in full) | 12.5 µM (inactive) |
| O=[N+]([O-])c1cc(-c2nc(-c3ccncc3)no2)cc([N+](=O)[O-])c1 | 1.59 µM |
| NC(N)=N/N=C/c1cn(-c2ccccc2)nc1-c1cccs1 | 6.07 µM |
| CCOC(=O)CC(=O)Nc1ccc(C(=O)OCC)cc1 | 5.23 µM |
| Fc1ccc(COc2ccc(-c3nnco3)cc2)cc1 | 10.8 µM (inactive) |
| Cc1cc(NC2CCCCC2)nc(NCc2ccccc2)n1 | 3.65 µM |
| CC1=NNC(=O)/C1=C\c1cn(-c2ccccc2)nc1-c1ccccc1 | 7.73 µM |
| COC(=O)COc1ccc2c(-c3ccc(OC)cc3)cc(=O)oc2c1 | 0.78 µM |
| CNC(C)C#Cc1ccc2oc3cc(C)c(C)cc3c(=O)c2c1 (stereo not given) | 7.55 µM |
| CCCCOc1ccc(-c2nnn(C(C)C(=O)OCC)n2)cc1 (stereo not given) | 1.57 µM |
| Clc1ccc(Cl)c(OCCCCNCc2ccccc2)c1 | 15.1 µM (inactive) |
| CC(Oc1ccc(Cl)cc1)C(=O)NNC(=S)NC(=O)c1ccco1 (stereo not given) | 22.3 µM (inactive) |
| CC(C)(C)c1ccc(NC(=O)COc2ccc(-n3ccnc3)cc2)cc1 | 30.2 µM (inactive) |
| CCCCCn1c(=O)c(C(=O)Nc2nc3ccccc3[nH]2)c(O)c2ccccc21 | 1.9 µM |
| CCOC(=O)COc1ccc2ccccc2c1/C=C/[N+](=O)[O-] | 2.32 µM |

| Structure (SMILES) | IC50 |
| --- | --- |
| O=C(NNc1c(F)c(F)cc(F)c1F)c1cc2ccccc2oc1=O | 27.5 µM (inactive) |
| O=c1ccn(-c2ccccc2)[nH]1 | 7.52 µM |
| O=C(Nc1ccc(Br)cc1)c1cc([N+](=O)[O-])cc([N+](=O)[O-])c1 | 2.63 µM |
| O=C(COC(=O)c1cc(Br)ccc1O)Nc1ccc2c(c1)OCO2 | 7.79 µM |
| N#Cc1ccsc1NC(=O)c1ccc(Cl)c([N+](=O)[O-])c1 | 4.4 µM |
| CCN1CCN(c2ccc(S(=O)(=O)N3CCCCC3)cc2NC(=O)c2ccc([N+](=O)[O-])s2)CC1 | 7.39 µM |
| CCOC(=O)CCSc1n[nH]c(=S)s1 | 11.7 µM (inactive) |
| CC(=O)N1CCN(c2cc3c(cc2F)c(=O)c(C(=O)O)cn3C2CC2)CC1 | 1.42 µM |
| N/C(=N\OC(=O)c1cccs1)c1ccccc1 | 24 µM (inactive) |
| O=C(N/N=C/c1ccc(OC(=O)c2cccs2)cc1)c1ccccn1 | 2.94 µM |
| Clc1ccc(SCCCCN2CCNCC2)cc1 | 39.3 µM (inactive) |
| c1ccc(-c2nc(NCCCn3ccnc3)c3ccccc3n2)cc1 | 17.8 µM (inactive) |
| CCOC(=O)Cc1csc(NC(=O)c2c(O)c3ccccc3n(CCC(C)C)c2=O)n1 | 1.77 µM |
| CC(C)c1ccc(/C=N/NC(=O)c2ccccn2)cc1 | 12.9 µM (inactive) |
| Nc1nonc1C(=O)N/N=C/c1ccc([N+](=O)[O-])o1 | 5.6 µM |
| CC(=O)c1ccc(-n2cc(-c3ccc(C(C)(C)C)cc3)[n+]3c2SCCC3)cc1 | 6.18 µM |
| CC(CCc1ccccc1)NC(=O)COC(=O)c1cccs1 (stereo not given) | 13.4 µM (inactive) |
| CN(C)c1c2ccccc2nc2c(F)c(F)c(F)c(F)c12 | 5.75 µM |
| COCCNC(=O)c1cc2cc(Cl)cc(Cl)c2oc1=O | 3.67 µM |
| O=C(COc1ccc(Br)cc1)N/N=C1/SCC(=O)N1Cc1ccccc1 | 13 µM (inactive) |
| O=C(CCNc1ccc(F)cc1)c1ccco1 | 6.12 µM |
| CCC(C)n1c(=S)[nH]c2ccccc2c1=O (stereo not given) | 14.8 µM (inactive) |
| O=C(CCSc1nnc(-c2ccncc2)o1)Nc1ccc(Cl)cc1 | 14.7 µM (inactive) |

| Structure (SMILES) | IC50 |
| --- | --- |
| O=C1N/C(=N\c2ccccn2)SC1Cc1ccc(Cl)cc1 (stereo not given) | 3.91 µM |
| CC1=NN(C(=O)c2ccc(Br)cc2)C(O)(c2ccccc2)C1 (stereo not given) | 0.47 µM |
| CCOC(=O)C(=CNNc1cccc(Cl)c1)C(=O)OCC | 18.7 µM (inactive) |
| CC(C)[C@H](NC(=O)c1ccc(Br)cc1)C(=O)NC1CCCCC1 | 1.37 µM |
| CCC(=O)N1CCN(c2cc3c(cc2F)c(=O)c(C(=O)O)cn3CC)CC1 | 7.67 µM |
| CCN(CC)c1ccc(NC2CC(=O)N(CCc3ccc(OC)cc3)C2=O)cc1 (stereo not given) | 25.6 µM (inactive) |
| O=C(c1ccc([N+](=O)[O-])s1)N1CCN(c2cccc(Cl)c2)CC1 | 0.38 µM |
| Cc1cc(OCCCCn2ccnc2)cc(C)c1Cl | 4.68 µM |
| Fc1ccc(N2CCN(Cc3nnc(-c4ccccc4)o3)CC2)cc1 | 18.9 µM (inactive) |
| O=C(Nc1ccccc1C(=O)Nc1nnc(C(F)(F)F)s1)c1ccccc1 | 1.27 µM |
| OC(CNCCc1ccc(C(F)(F)F)cc1)COc1ccc2ccccc2c1 (stereo not given) | 8.28 µM |
| Cc1cccc(NC(=O)COC(=O)c2cc3ccccc3oc2=O)c1 | 14.2 µM (inactive) |
| CCOC(=O)C1CCCN(Cc2ccc(OCc3ccccc3)cc2)C1 (stereo not given) | 21.8 µM (inactive) |
| Clc1ccc2c(N3CCCC3)ccnc2c1 | 16.4 µM (inactive) |
| CC(NCC(O)COCCC12CC3CC(CC(C3)C1)C2)c1ccccc1 (stereo not given) | 7.88 µM |
| CCOC(=O)c1c(C)[nH]c(C)c1C(=O)COC(=O)c1ccc([N+](=O)[O-])s1 | 1.65 µM |
| O=C(NC(=S)NCCc1ccccc1)c1ccccc1 | 10.4 µM (inactive) |
| Cc1ccc(-n2nnnc2CNC(=O)c2ccc([N+](=O)[O-])o2)cc1C | 24.2 µM (inactive) |
| N#CC1=C(N)Oc2n[nH]c(-c3cccnc3)c2C1c1ccc([N+](=O)[O-])o1 (stereo not given) | 5.62 µM |
| O=C(c1ccccc1)n1c(=O)c(F)cn(COCCBr)c1=O | 21 µM (inactive) |
| O=[N+]([O-])c1ccc(Nc2ccccc2O)c2nonc12 | 5.94 µM |
| O=C(CCC1CCCC1)NCc1ccccn1 | 3.4 µM |
| CC(/C=C/c1ccccc1F)=N\NC(=O)c1ccccc1 | 3.87 µM |

From PubChem BioAssay AID488890 (Southern Research Specialized Biocontainment Screening …, 2010)
